This assay concerns human subjects having a fasting blood sugar level of 120 mg/dL to 140 mg/dL. The experiment in a line: Test of PT/PD intake for human: fasting and postprandial blood sugar level, blood indices. Format: in vivo. As to conditions: for fasting blood sugar level: 8 mg capsule once a day for eight weeks; for fasting blood sugar level / postprandial blood sugar level: compared with the placebo-given group; for postprandial blood sugar level / 1-5AG / Glycoalbumin / HbA1c / Insulin (fasting): 8 mg capsule once a day; for postprandial blood sugar level: 30 min, 60 min and 120 min, starch food load. As for the experimental part: Panax notoginseng powder (10 g) was suspended in 100 mL of 30% by mass aqueous solution of ethanol, and then saponins were extracted under heating for 2 hours. The obtained extract was hydrolyzed in the presence of hydrochloric acid to prepare an aglycon-containing product. The aglycon-containing product was treated with a silica gel column (SILICA GEL 60N, product of KANTO CHEMICAL CO., LTD.) to isolate and prepare panaxatriol (PT) having a purity of 99% by mass or higher.
Next, capsules each containing 8 mg of the thus-prepared panaxatriol (PT) were prepared. These capsules were given continuously for eight weeks to human subjects of a group (hereinafter may be referred to as “PT-given group”) to measure the fasting blood sugar level and a change in postprandial blood sugar level which was measured after giving to the human subjects predetermined meals such as a meal containing an excessive amount of starch food (e.g., a rice ball formed of 200 g of cooked rice (350 kcal)). Also, the blood indices measured were the blood HbA1c level, the blood glycoalbumin level, the blood 1·5AG level and the fasting blood insulin level.
The blood sugar levels were measured with a simplified blood sugar meter FREESTYLE (product of NIPRO Co.). The fasting blood sugar level and the fasting insulin level were measured at 9 a.m. The postprandial blood sugar level was measured every 30 min for 120 min from 9 a.m. to 11:30 a.m. after the predetermined starch food had been given to the subjects. The HbA1c, glycoalbumin and 1·5AG levels were measured by a routine method of a medical facility using the blood sampled at 9 a.m.
The 24 subjects were randomly divided to two groups and assigned to a placebo-given group, serving as a control, and a PT-given group. Also, the results were statistically analyzed using the Student's t-test comparing the placebo-given group and the PT-given group. The time at which the capsules were given was set to 10 a.m. every day so that the capsules were not given at the same time as a meal.
Panax notoginseng powder (10 g) was suspended in 100 mL of 30% by mass aqueous solution of ethanol, and then saponins were extracted under heating for 2 hours. The obtained extract was hydrolyzed in the presence of hydrochloric acid to prepare an aglycon-containing product. The aglycon-containing product was treated with a silica gel column (SILICA GEL 60N, product of KANTO CHEMICAL CO., LTD.) to isolate and prepare panaxadiol (PD) having a purity of 99% by mass or higher.
Next, capsules each containing 8 mg of the thus-prepared panaxadiol (PD) were prepared. These capsules were given continuously for eight weeks to human subjects of a group (hereinafter may be referred to as “PD-given group”) to measure the fasting blood sugar level and a change in postprandial blood sugar level which was measured after giving to the human subjects predetermined meals such as a meal containing an excessive amount of starch food (e.g., a rice ball formed of 200 g of cooked rice (350 kcal)). Also, the blood indices measured were the blood HbA1c level, the blood glycoalbumin level, the blood 1·5AG level and the fasting blood insulin level.
The 24 subjects were randomly divided to two groups and assigned to a placebo-given group, serving as a control, and a PD-given group. Also, the results were statistically analyzed using the Student's t-test comparing the placebo-given group and the PD-given group. The time at which the capsules were given was set to 10 a.m. every day so that the capsules were not given at the same time as the meal.

With `CC1(C)CCC[C@](C)([C@H]2CC[C@]3(C)[C@@H]2[C@H](O)C[C@@H]2[C@@]4(C)CC[C@H](O)C(C)(C)[C@@H]4CC[C@]23C)O1` [PD, panaxadiol], the “fasting blood sugar level” value was “decreased significantly” and the “postprandial blood sugar level” value is “decrease significantly”. Further, for the setting “Week 0”, the 1-5AG turned out to be 24.4 ± 7.8 µg/mL, the Glycoalbumin turned out to be 14.8 ± 1.4 % by mass, the HbA1c is listed as 5.1 ± 0.1 % by mass and the “Insulin (fasting)” value is 5.6 ± 1.4 μU/mL. Where the note is “Week 2”, the 1-5AG stood at 24.1 ± 7.2 µg/mL, the Glycoalbumin is listed as 14.5 ± 1.2 % by mass, the HbA1c is 5.1 ± 0.2 % by mass and the “Insulin (fasting)” value worked out at 5.9 ± 2.2 μU/mL. Under “Week 4”, the 1-5AG turned out to be 25.0 ± 7.3 µg/mL, the Glycoalbumin turned out to be 14.3 ± 1.3 % by mass, the HbA1c was found to be 5.1 ± 0.1 % by mass and the “Insulin (fasting)” value is 5.9 ± 3.8 μU/mL. For the same compound, where the note is “Week 8”, the 1-5AG turned out to be 25.7 ± 6.4 µg/mL, the Glycoalbumin is reported as 14.2 ± 1.1 % by mass, the HbA1c is on record as 4.8 ± 0.1 % by mass and the “Insulin (fasting)” value worked out at 6.1 ± 2.6 μU/mL.
For `CC1(C)CCC[C@](C)([C@H]2CC[C@]3(C)[C@@H]2[C@H](O)C[C@@H]2[C@@]4(C)CC[C@H](O)C(C)(C)[C@@H]4[C@@H](O)C[C@]23C)O1` [PT, panaxatriol], the “fasting blood sugar level” value was “decreased significantly” and the “postprandial blood sugar level” value is listed as “decrease significantly”. For the setting “Week 0”, the 1-5AG was 24.3 ± 7.7 µg/mL, the Glycoalbumin amounted to 14.7 ± 1.3 % by mass, the HbA1c stood at 5.1 ± 0.1 % by mass and the “Insulin (fasting)” value was determined as 5.5 ± 1.5 μU/mL. Where the note is “Week 2”, the 1-5AG turned out to be 24.2 ± 7.1 µg/mL, the Glycoalbumin stood at 14.5 ± 1.3 % by mass, the HbA1c is given as 5.1 ± 0.2 % by mass and the “Insulin (fasting)” value worked out at 6.1 ± 2.1 μU/mL. Under “Week 4”, the 1-5AG amounted to 25.0 ± 7.5 µg/mL, the Glycoalbumin worked out at 14.3 ± 1.3 % by mass, the HbA1c was determined as 5.1 ± 0.1 % by mass and the “Insulin (fasting)” value is listed as 5.8 ± 4.2 μU/mL. In addition, where the note is “Week 8”, the 1-5AG was found to be 25.6 ± 6.3 µg/mL, the Glycoalbumin is 14.2 ± 1.3 % by mass, the HbA1c is recorded as 4.8 ± 0.2 % by mass and the “Insulin (fasting)” value came to 6.2 ± 2.4 μU/mL.

Source of the values: patent publication US20120116069A1, “GLUCOSE METABOLISM-IMPROVING AGENT AND GLUCOSE METABOLISM-IMPROVING COMPOSITION” (LION CORPORATION, priority 2009, published 2012).
